Test results published in the supplement of paper PMC5579334.
± gives the standard deviation of the averaged measurements.

Key:
YST-1 [1] = experiment: drug sensitivity score (DSS, CellTiter-Glo viability, 72 h) (DSS (dimensionless)); higher = more sensitive; extreme values may be limits of the assay
Method in brief: (§1)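 MPNST cell lines and primary human Schwann cells (750–1000 cells per well) went into 384-well plates preprinted with each compound at five concentrations in 10-fold steps. Plates were incubated 72 h at 37 °C, 5% CO2. Viability was read as CellTiter-Glo ATP luminescence, scaled between vehicle and positive-control wells, with duplicates averaged where present. Percent inhibition is at the top concentration; drug sensitivity score and relative IC50 (censored at top concentration) come from four-parameter logistic fits.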

ST8814 [2] = experiment: as above
Method in brief: as §1

[3] = test system: HSC2 (primary human Schwann cells); experiment: as above
Method in brief: as §1

HS-PSS [4] = experiment: as above
Method in brief: as §1

STS26T [5] = experiment: as above
Method in brief: as §1

S1507-2 [6] = experiment: as above
Method in brief: as §1

[7] = test system: HSC1 (primary human Schwann cells); experiment: as above
Method in brief: as §1

HS-Sch-2 [8] = experiment: as above
Method in brief: as §1

S462 [9] = experiment: as above
Method in brief: as §1

YST-1 [10] = experiment: % inhibition of CellTiter-Glo viability at highest tested concentration (72 h), relative to DMSO and benzethonium chloride controls; higher = more inhibition
Method in brief: as §1

ST8814 [11] = experiment: as above
Method in brief: as §1

[12] = test system: HSC2 (primary human Schwann cells); experiment: as above
Method in brief: as §1

HS-PSS [13] = experiment: as above
Method in brief: as §1

STS26T [14] = experiment: as above
Method in brief: as §1

S1507-2 [15] = experiment: as above
Method in brief: as §1

[16] = test system: HSC1 (primary human Schwann cells); experiment: as above
Method in brief: as §1

HS-Sch-2 [17] = experiment: as above
Method in brief: as §1

S462 [18] = experiment: as above
Method in brief: as §1

ST8814 [19] = experiment: drug sensitivity score (DSS, CellTox-Green cytotoxicity, 72 h) (DSS (dimensionless)); higher = more cytotoxic; extreme values may be limits of the assay
Method in brief: (§2)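 MPNST cell lines and primary human Schwann cells were incubated 72 h at 37 °C in 384-well plates holding five 10-fold compound dilutions. CellTox-Green was added before seeding at a final 1:1000 dilution and reported fluorescence from DNA released by disrupted cells. Signals were scaled to vehicle and positive-control wells, and cultures failing plate quality control were dropped. Drug sensitivity score and relative IC50 come from four-parameter logistic fits, with IC50 censored at the top concentration.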

[20] = test system: HSC2 (primary human Schwann cells); experiment: as above
Method in brief: as §2

HS-PSS [21] = experiment: as above
Method in brief: as §2

STS26T [22] = experiment: as above
Method in brief: as §2

S1507-2 [23] = experiment: as above
Method in brief: as §2

[24] = test system: HSC1 (primary human Schwann cells); experiment: as above
Method in brief: as §2

Row | Structure (SMILES) | drug sensitivity score (YST-1 [1]) | drug sensitivity score (ST8814 [2]) | drug sensitivity score [3] | drug sensitivity score (HS-PSS [4]) | drug sensitivity score (STS26T [5]) | drug sensitivity score (S1507-2 [6]) | drug sensitivity score [7] | drug sensitivity score (HS-Sch-2 [8]) | drug sensitivity score (S462 [9]) | % inhibition (YST-1 [10]) | % inhibition (ST8814 [11]) | % inhibition [12] | % inhibition (HS-PSS [13]) | % inhibition (STS26T [14]) | % inhibition (S1507-2 [15]) | % inhibition [16] | % inhibition (HS-Sch-2 [17]) | % inhibition (S462 [18]) | drug sensitivity score (ST8814 [19]) | drug sensitivity score [20] | drug sensitivity score (HS-PSS [21]) | drug sensitivity score (STS26T [22]) | drug sensitivity score (S1507-2 [23]) | drug sensitivity score [24]
1 | CNC(=O)c1ccccc1Sc1ccc2c(/C=C/c3ccccn3)n[nH]c2c1 [Axitinib] (max concentration tested 10000 nM) | 4.01 | 5.17 | 6.51 | 2.26 | 5.81 | 4.27 ± 3.4 | 7.23 | 6.01 | 6.12 ± 0.37 | 39.9% | 52.7% | 53.8% | 38% | 61.1% | 38.5 ± 19% | 66.9% | 67.8% | 52.1 ± 6.1% | 0.581 | 0.0899 | 0 | 6.29 | 1.12 ± 1.1 | 1.46
2 | Nc1nc2[nH]cnc2c(=S)[nH]1 [Thioguanine] (max concentration tested 10000 nM) | 8.84 | 10.7 | 0 | 7.46 | 10.6 | 4.38 ± 1.2 | 0.0001 | 8.53 | 7.88 ± 0.29 | 88.8% | 80.4% | -7.39% | 76.4% | 81% | 60.8 ± 2.1% | 10.4% | 79.2% | 74.5 ± 5.8% | 0.689 | 0 | 0 | 4.01 | 0.992 ± 1.4 | 0
3 | COc1cc(CCc2cc(NC(=O)c3ccc(N4CC(C)NC(C)C4)cc3)n[nH]2)cc(OC)c1 (configuration not stated) [AZD4547] (max concentration tested 1000 nM) | 0 | 0 | 0 | 0 | 0 | 1.28 ± 0.63 | 3.09 | 1.94 | 2.85 ± 0.75 | 3.65% | 9.11% | 4.39% | 4.91% | -2.98% | 22.2 ± 3.5% | 22.4% | 33.5% | 24.6 ± 2.2% | 0 | 0 | 0 | 0 | 0.158 ± 0.22 | 0
4 | CNCc1ccc(-c2[nH]c3cc(F)cc4c3c2CCNC4=O)cc1 [Rucaparib] (max concentration tested 10000 nM) | 8.59 | 0 | 0 | 2.72 | 0 | 0 | 0 | 1.1 | 2.11 ± 0.82 | 60.9% | 4.21% | 8.78% | 30.1% | 4.71% | -0.362 ± 7.1% | 4.91% | 22.2% | 27.7 ± 9% | 0 | 0 | 0 | 0 | 3.1 ± 4.4 | 0
5 | CC(=O)OC[C@H]1O[C@@H]([S-])[C@H](OC(C)=O)[C@@H](OC(C)=O)[C@@H]1OC(C)=O.CCP(CC)CC.[Au+] [Auranofin] (max concentration tested 2500 nM) | 5.04 | 3.73 | 8.02 | 4.86 | 5.55 | 1.36 ± 1 | 8.86 | 9.71 | 8.14 ± 2 | 91.7% | 66.9% | 95.2% | 75.4% | 79.9% | 25.1 ± 9.3% | 94.8% | 99.9% | 94.62 ± 0.92% | 0.171 | 7.25 | 1.15 | 3.5 | 0.0037 ± 0.0052 | 7.83
6 | CN(C)CCOc1ccc(/C(=C(/CCCl)c2ccccc2)c2ccccc2)cc1 [Toremifene] (max concentration tested 10000 nM) | 0.84 | 1.19 | 3.28 | 2.31 | 0.998 | 1.26 ± 0.65 | 1.48 | 1.63 | 0.537 ± 0.16 | 26.3% | 34.5% | 55.6% | 48.1% | 27.1% | 32.2 ± 11% | 21.8% | 37.2% | 22.3 ± 3% | 5.11 | 0 | 0 | 0.141 | 1.36 ± 0.28 | 0
7 | C=C(c1ccc(C(=O)O)cc1)c1cc2c(cc1C)C(C)(C)CCC2(C)C [Bexarotene] (max concentration tested 10000 nM) | 0 | 0 | 0 | 0 | 0 | 2.77 ± 0.55 | 2.52 | 0 | 0 | -1.34% | 5.83% | -0.128% | -11.5% | -8.14% | 22.7 ± 3.6% | 11.7% | 4.76% | -9.52 ± 9.1% | 0 | 0 | 0 | 0 | 1.23 ± 0.75 | 0
8 | Cn1cc(C2=C(c3cn(C4CCN(Cc5ccccn5)CC4)c4ccccc34)C(=O)NC2=O)c2ccccc21 [Enzastaurin] (max concentration tested 10000 nM) | 0 | 0.0668 | 1.06 | 3.43 | 1.09 | 3.15 ± 2.5 | 1.32 | 0.28 | 0.0347 ± 0.049 | -1.13% | 12.8% | 25.1% | 11.3% | 19.9% | 26.9 ± 3.6% | 21.8% | 12.3% | 10.8 ± 2.6% | 0 | 0 | 0 | 0.0176 | 0 | 0
9 | COc1ccc(C2=N[C@@H](c3ccc(Cl)cc3)[C@@H](c3ccc(Cl)cc3)N2C(=O)N2CCNC(=O)C2)c(OC(C)C)c1 [Nutlin-3] (max concentration tested 10000 nM) | 9.36 | 4.66 | 7.69 | 1.69 | 0.0084 | 0.283 ± 0.4 | 5.97 | 0 | 0 | 94.8% | 59.7% | 71.8% | 24.9% | 12.2% | 7.98 ± 12% | 62.4% | 1.38% | 5.05 ± 4.8% | 0.0128 | 0 | 0 | 0 | 1.97 ± 2.8 | 0
10 | CNC(=O)c1ccc(N2C(=S)N(c3cnc(C#N)c(C(F)(F)F)c3)C(=O)C23CCC3)cc1F [ARN 509] (max concentration tested 10000 nM) | 0 | 0 | 0 | 2.56 | 0 | 0 | 0 | 0 | 0 | 5.31% | 9.08% | -11.5% | 11.9% | 2.87% | 1.5 ± 14% | -4.96% | 3.75% | 5.15 ± 0.46% | 0 | 0 | 0 | 0.407 | 0.0953 ± 0.14 | 0
11 | CNC(=O)c1cc(Oc2ccc(NC(=O)Nc3ccc(Cl)c(C(F)(F)F)c3)c(F)c2)ccn1 [Regorafenib] (max concentration tested 10000 nM) | 6.49 | 7.57 | 6.19 | 1.9 | 4.35 | 2.21 ± 1.2 | 4.61 | 4.17 | 7.19 ± 0.46 | 73% | 74.2% | 78.6% | 43% | 49.9% | 33.7 ± 17% | 73.8% | 84.1% | 80.9 ± 5.1% | 1.04 | 0 | 0 | 0.529 | 0 | 0
12 | Cc1cc(C(C)Nc2ccccc2)c2nc(N3CCOCC3)cc(=O)n2c1 (configuration not stated) [TGX-221] (max concentration tested 10000 nM) | 0.99 | 1.34 | 0 | 0 | 4.31 | 3.32 ± 0.24 | 0.168 | 0.19 | 0.122 ± 0.17 | 26.6% | 21.4% | 6.57% | -2.49% | 41.7% | 28.4 ± 7.1% | 16.5% | 12.3% | 7.98 ± 6.7% | 0 | 0 | 0 | 0.376 | 0 | 0
13 | Cc1cc2c(C(C)C)c(O)c(O)c(C=O)c2c(O)c1-c1c(C)cc2c(C(C)C)c(O)c(O)c(C=O)c2c1O [AT 101] (max concentration tested 100000 nM) | 15.2 | 12.6 | 20.2 | 9.43 | 11.8 | 8.69 ± 1.2 | 16.2 | 15.1 | 16 ± 1.1 | 101% | 95.4% | 93.6% | 101% | 96.6% | 95.6 ± 1.6% | 94.7% | 101% | 95.03 ± 0.8% | 0.0013 | 0 | 2.34 | 0 | 0 | 4.09
